Results on two compounds are retold here after paper PMC8308911, “Pharmacokinetic Study of Anti-osteoarthritic Compounds of a Standardized Fraction from Sphaeralcea Angustifolia” (Pharmaceuticals, 2021).

The conditions of data set [1]: mouse.
Description: (§1) The investigation presented here expected manipulation conditions during all of the sample storage and process periods, which included the stability data from the freeze/defrost, bench-top, autosampler, and long-term stability tests. For all stability studies, fresh QC samples were evaluated by using a freshly prepared standard curve for the measurements. The analyzed conditions were 0, 8, and 24 h at room temperature, 8 h at 4 °C, and 30 days at −70 °C. The concentrations obtained from all of the stability studies were compared with the fresh QC samples, and the percentage of concentration deviation was calculated.
Data set [2] in a line: Stability of the active compounds in mouse plasma under handling and storage conditions. The note with it: mice plasma.
Description: as §1
Where [3] appears, read: Autosampler (4 °C, 8 h), nominal 2.5 μg/mL.
Where [4] appears, read: Autosampler (4 °C, 8 h), nominal 5 μg/mL.
[5] abbreviates: Autosampler (4 °C, 8 h), nominal 10 μg/mL.
[6] abbreviates: Long-term (−70 °C, 1 month), nominal 2.5 μg/mL.
[7] abbreviates: Long-term (−70 °C, 1 month), nominal 5 μg/mL.
Where [8] appears, read: Long-term (−70 °C, 1 month), nominal 10 μg/mL.
The mark [9] stands for this setting: room temperature, 0 h, nominal 2.5 μg/mL.
Where [10] appears, read: room temperature, 0 h, nominal 5 μg/mL.
Setting [11] is: room temperature, 0 h, nominal 10 μg/mL.
The mark [12] stands for this setting: room temperature, 8 h, nominal 2.5 μg/mL.
Setting [13] is: room temperature, 8 h, nominal 5 μg/mL.
Setting [14] is: room temperature, 8 h, nominal 10 μg/mL.
Where [15] appears, read: room temperature, 24 h, nominal 2.5 μg/mL.
[16] abbreviates: room temperature, 24 h, nominal 5 μg/mL.
Setting [17] is: room temperature, 24 h, nominal 10 μg/mL.

Each structure is given as a SMILES string. Where two headings read alike, the source gives them in different places.

Regarding `COc1cc2ccc(=O)oc2cc1O` [Scopoletin, scopoletin], the “Accuracy Bias” value was −0.48% in data set [1] (0 h, 2.5 μg/mL); 0.39% in data set [1] (0 h, 5 μg/mL); 0.04% in data set [1] (0 h, 10 μg/mL); −7.05% in data set [1] (1 month, 2.5 μg/mL); −2.27% in data set [1] (1 month, 5 μg/mL); −0.46% in data set [1] (1 month, 10 μg/mL). Also, the “Accuracy Bias” value in data set [1] (24 h, 2.5 μg/mL) is recorded as −4.63%; in data set [1] (24 h, 5 μg/mL), 0.43%; in data set [1] (24 h, 10 μg/mL) it was −6.61%. Also, the “Observed Concentration” value amounted to 2.49 ± 0.12 µg/mL in data set [1] (0 h, 2.5 μg/mL); 5.02 ± 0.08 µg/mL in data set [1] (0 h, 5 μg/mL); 10.00 ± 0.37 µg/mL in data set [1] (0 h, 10 μg/mL); 2.32 ± 0.08 µg/mL in data set [1] (1 month, 2.5 μg/mL); 4.89 ± 0.17 µg/mL in data set [1] (1 month, 5 μg/mL); 9.95 ± 0.38 µg/mL in data set [1] (1 month, 10 μg/mL). Also, the “Observed Concentration” value amounted to 2.38 ± 0.08 µg/mL in data set [1] (24 h, 2.5 μg/mL); 5.02 ± 0.10 µg/mL in data set [1] (24 h, 5 μg/mL); 9.34 ± 0.27 µg/mL in data set [1] (24 h, 10 μg/mL).
For the compound `COc1cc2oc(=O)ccc2c(O)c1OC` [Tomentin, tomentin], the “Accuracy Bias” value in data set [2] (setting [3]) is listed as −2.64%; in data set [2] (setting [4]), −1.65%; in data set [2] (setting [5]) it was −0.65%; in data set [2] (setting [6]), −7.61%; in data set [2] (setting [7]) it was −2.90%; in data set [2] (setting [8]), −3.74%. Besides, the “Accuracy Bias” value in data set [2] (setting [9]) was −4.59%; in data set [2] (setting [10]), −1.48%; in data set [2] (setting [11]), −0.41%; in data set [2] (setting [12]), −7.60%; in data set [2] (setting [13]) it was −0.86%; in data set [2] (setting [14]), −1.64%. Besides, the “Accuracy Bias” value in data set [2] (setting [15]) was −5.93%; in data set [2] (setting [16]), −1.73%; in data set [2] (setting [17]), −4.52%. In addition, the “Observed Concentration” value in data set [2] (setting [3]) was 2.43 ± 0.11 µg/mL; in data set [2] (setting [4]) it was 4.92 ± 0.14 µg/mL; in data set [2] (setting [5]), 9.93 ± 0.62 µg/mL; in data set [2] (setting [6]), 2.31 ± 0.09 µg/mL; in data set [2] (setting [7]), 4.85 ± 0.18 µg/mL; in data set [2] (setting [8]), 9.63 ± 0.65 µg/mL. Further, the “Observed Concentration” value in data set [2] (setting [9]) was 2.39 ± 0.09 µg/mL; in data set [2] (setting [10]) it was 4.93 ± 0.11 µg/mL; in data set [2] (setting [11]) it was 9.96 ± 0.30 µg/mL; in data set [2] (setting [12]), 2.31 ± 0.08 µg/mL; in data set [2] (setting [13]) it was 4.96 ± 0.14 µg/mL; in data set [2] (setting [14]), 9.84 ± 0.40 µg/mL. For the same compound, the results for the “Observed Concentration” value in data set [2] (setting [15]), in data set [2] (setting [16]) and in data set [2] (setting [17]) were 2.35 ± 0.09 µg/mL, 4.91 ± 0.17 µg/mL and 9.55 ± 0.19 µg/mL, respectively.
